From PubChem BioAssay (NCI)
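96-well plates; 48 h exposure; 5 concentrations. Endpoints by linear interpolation between flanking doses. Not reached: highest tested concentration assigned. At the GI50, growth is halved. At the TGI there is no net growth.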

What was measured:
Experiment in all cases: growth of human tumour cells (NCI), 48 h
OVCAR-5 ovarian = tested on: OVCAR-5 ovarian
UACC-257 melanoma = tested on: UACC-257 melanoma
OVCAR-8 ovarian = tested on: OVCAR-8 ovarian
NCI-H226 lung = tested on: NCI-H226 lung
SF-539 CNS = tested on: SF-539 CNS
HCT-15 colon = tested on: HCT-15 colon
TK-10 renal = tested on: TK-10 renal
786-0 renal = tested on: 786-0 renal
SNB-75 CNS = tested on: SNB-75 CNS
A498 renal = tested on: A498 renal

| SMILES | TGI (OVCAR-5 ovarian) [µM] | TGI (UACC-257 melanoma) [µM] | TGI (OVCAR-8 ovarian) [µM] | TGI (NCI-H226 lung) [µM] | TGI (SF-539 CNS) [µM] | TGI (HCT-15 colon) [µM] | TGI (TK-10 renal) [µM] | TGI (786-0 renal) [µM] | TGI (SNB-75 CNS) [µM] | TGI (A498 renal) [µM] | GI50 (SNB-75 CNS) [µM] | GI50 (HCT-15 colon) [µM] |
| --- | --- | --- | --- | --- | --- | --- | --- | --- | --- | --- | --- | --- |
| O=C1NC(=S)N/C1=C/c1ccccc1O | > 100 | > 100 | > 100 | > 100 | > 100 | > 100 | > 100 | > 100 | – | – | – | – |
| COc1cccc(NC(=O)CSc2nnc(-c3ccc(N=Cc4ccc(Cl)cc4)cc3)o2)c1 | – | – | 58.4 | 43.4 | – | 33.8 | 74.3 | 57.5 | 66.3 | – | – | – |
| CC1=C(C(=O)OCCc2ccc([N+](=O)[O-])cc2)C(c2ccccc2[N+](=O)[O-])C(C(=O)OC(C)C)=C(C)N1 (stereo unspecified) | > 100 | > 100 | > 100 | 65.3 | > 100 | > 100 | > 100 | 17.9 | > 100 | – | – | – |
| CC[C@]12C=CCN3CCC4(c5cc(N=Nc6ccccc6)c(OC)cc5N(C)[C@H]4[C@@](O)(C(=O)OC)[C@@H]1OC(C)=O)[C@@H]32 (stereo partly specified) | 41.1 | 34.9 | 42.2 | 51.5 | 48.3 | 34.4 | 34.1 | 32.4 | – | 32.2 | – | – |
| Cc1cc2ccccc2n1CC(=O)NCC(C)C | > 100 | > 100 | > 100 | > 100 | > 100 | > 100 | > 100 | > 100 | > 100 | – | – | – |
| CC1=CC(O)C(O)C2(C)C1CC1OC(=O)C(O)C3C(C)C(O)C4(O)OCC13C42 (stereo unspecified) | > 454 | 467 | > 570 | 243 | 237 | > 625 | – | – | 33.3 | 72.1 | – | – |
| NC(Cc1cc(I)c(O)c(I)c1)C(=O)O (stereo unspecified) | > 500 | > 354 | > 500 | > 500 | > 500 | > 362 | – | – | > 330 | > 500 | – | – |
| COC(=O)c1ccc(-c2nc(C#N)c(N)o2)cc1 | > 100 | > 100 | > 100 | > 100 | > 100 | > 100 | > 100 | > 100 | – | – | – | – |
| CCCn1c(C23CC4CC(CC(C4)C2)C3)nc2ccc(Cl)cc2c1=O | > 100 | > 100 | > 100 | > 100 | > 100 | > 100 | > 100 | > 100 | – | 66.1 | – | – |
| N#CCCC1C(C#N)C2CC1C1C3C=CC(C3)C21 (stereo unspecified) | > 100 | > 100 | > 100 | > 100 | – | > 100 | > 100 | > 100 | > 100 | – | – | – |
| Cc1ccc(C(=O)N(C(C)C)C(C)C)cc1N=NN(C)C | > 100 | > 100 | > 100 | > 100 | > 100 | > 100 | > 100 | > 100 | – | – | – | – |
| O=C(c1ccc2ccccc2c1)C1S(=O)(=O)OCCOS1(=O)=O | > 100 | > 100 | > 100 | – | – | > 100 | > 100 | > 100 | – | – | – | – |
| Cc1ccc(S(=O)(=O)n2cncc2CO)cc1 | > 100 | > 100 | > 100 | > 100 | > 100 | > 100 | > 100 | > 100 | > 100 | – | – | – |
| CN1CCn2c(Br)ccc2C1=O | – | > 100 | > 100 | > 100 | > 100 | > 100 | > 100 | > 100 | – | > 100 | – | – |
| COc1cc(C2C3=C(CCC3=O)Oc3cc4c(cc32)OCO4)cc(OC)c1OC (stereo unspecified) | > 100 | > 100 | > 100 | – | – | > 100 | 69.2 | – | 0.481 | – | – | – |
| CC1(C)COC(c2cccc(C3=NC(C)(C)CO3)c2Br)=N1 | > 100 | > 100 | > 100 | > 100 | > 100 | > 100 | > 100 | > 100 | > 100 | – | – | – |
| CCOC(=O)c1ccc2nc(NC(=O)COC(=O)CSc3nc(C)cc(C)n3)sc2c1 | 86.1 | > 100 | > 100 | – | 80.6 | > 100 | > 100 | > 100 | 60.4 | > 100 | – | – |
| CC1(C)O[C@@H](CO)[C@H]([C@@]23OC[C@H]4OC(C)(C)OC4[C@@H]2OC(C)(C)O3)O1 (stereo partly specified) | > 100 | – | > 100 | > 100 | – | > 100 | – | > 100 | > 100 | – | – | – |
| CN(C(=O)C1(C(=O)C=[N+]=[N-])CC1)c1ccccc1 | > 100 | > 100 | > 100 | > 100 | > 100 | > 100 | > 100 | > 100 | > 100 | – | – | – |
| N#CC1=C(N)C(C#N)(C#N)C(c2ccc(F)cc2)C=C1C1CC1 (stereo unspecified) | 34.5 | 21.1 | 21.5 | – | 2.42 | 22.3 | 44 | 21.9 | 18.1 | 23.5 | – | – |
| CCOC(=O)c1ccc(C(=O)C(C(C)=O)C(=O)OC(C)(C)C)n1C (stereo unspecified) | > 100 | > 100 | > 100 | > 100 | – | > 100 | > 100 | > 100 | > 100 | > 100 | – | – |
| CC(C)(CO)CNc1nc(N)nc(Cl)c1N | > 100 | > 100 | > 100 | > 100 | > 100 | > 100 | > 100 | > 100 | > 100 | – | – | – |
| c1ccc(CCN2CCCCCC2)nc1 | > 100 | – | > 100 | > 100 | – | > 100 | > 100 | > 100 | – | > 100 | – | – |
| OC(c1ccc(Cl)cc1)(c1ccc(Cl)cc1)C(O)(c1ccc(Cl)cc1)c1ccc(Cl)cc1 | – | – | – | – | – | > 100 | – | – | > 100 | – | 4.36 | 2.93 |
| CN=C(Nn1cnnc1)OC | > 100 | > 100 | > 100 | – | – | > 100 | – | > 100 | – | > 100 | – | – |
